We go through one compound from PMC8583996, “Berberine Inhibits MDA-MB-231 Cells as an Agonist of G Protein-Coupled Estrogen Receptor 1” (International Journal of Molecular Sciences, 2021).

The assay concerns the target T1, human GPER1 (Homo sapiens, UniProt Q99527).
T1 construct: Sf9 baculovirus; Ni-NTA (tag not described) and size exclusion; DDM/CHS; primarily monomer
Kind of assay: intrinsic fluorescence quenching titration. It is filed as binding.

T1 sequence (Q99527 whole entry): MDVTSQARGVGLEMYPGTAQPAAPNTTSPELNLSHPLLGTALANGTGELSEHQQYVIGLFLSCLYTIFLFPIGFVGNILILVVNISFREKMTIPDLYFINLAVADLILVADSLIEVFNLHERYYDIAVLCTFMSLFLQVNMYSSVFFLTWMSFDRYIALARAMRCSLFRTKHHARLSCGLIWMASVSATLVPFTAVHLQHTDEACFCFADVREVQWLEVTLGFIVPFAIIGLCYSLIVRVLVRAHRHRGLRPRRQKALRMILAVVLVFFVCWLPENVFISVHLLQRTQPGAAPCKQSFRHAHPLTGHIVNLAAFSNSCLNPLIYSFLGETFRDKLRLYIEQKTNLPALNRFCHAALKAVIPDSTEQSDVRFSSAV

As usually defined, the Kd is the equilibrium constant for the complex coming apart. Higher therefore signals lower affinity. Regarding `COc1ccc2cc3[n+](cc2c1OC)CCc1cc2c(cc1-3)OCO2` [BBR], the Kd stood at 0.89 nM.
